The text below walks through data of patent US6462043B1 (dated 2002).

As a reminder, the melting point is the temperature of the solid-liquid transition. `CN/C(=N/[N+](=O)[O-])NCc1cnc(Cl)c(Cl)c1` displayed a melting point of 173 to 174 °C.

`CCCOCCCN1CN(C)/C(=N/[N+](=O)[O-])N(Cc2ccc(Cl)nc2)C1` came in with a melting point of 70 to 72 °C.
